From patent US7557145B2, “Inhibition of the asexual reproduction of fungi by eugenol and/or derivatives thereof” (Henkel Kommanditgesellschaft auf Aktien (Henkel KGAA), priority 2003, dated 2009)

Columns and labels:
Format in all cases: cell-based
[1] = tested on: Aspergillus niger (DSM 1988); assay: Sporulation of Aspergillus niger on wort agar plates containing active component
Protocol: Effect of Eugenol and Eugenol Silicic Acid Esters on the Sporulation of Aspergillus niger
Contamination of the surface of wort agar plates with 100 μl of a germ suspension (10^3 CFU/ml) of Aspergillus niger (DSM 1988). Various quantities of active component (solutions in ethanol, final concentrations in % by weight, see Table) were added to the agar plates beforehand. The plates were incubated for 3 days at 25° C. Sporulation was visually evaluated and the sporulation rate in [%] was determined. […]

[2] = tested on: Aspergillus niger, DSM 1988; assay: Sporulation of Aspergillus niger on the surface of an acetate jointing compound
Protocol: Effect on Eugenol on the Sporulation of Aspergillis niger on the Surface of an Acetate Jointing Compound
Commercially available, but preservative-free, one-component silicone jointing compounds curing at room temperature (acetate system, cured 2.2×2.2×0.3 cm pieces of film) were disinfected with 70% EtOH (ethanol) and placed for 24 h in active component solutions with various concentrations (in ethanol, see Table for final concentrations). The test specimens were then re-washed twice with EtOH, rinsed with water (sterile) and dried for 24 h. The test specimens were weighed before and after this treatment and the quantity of active component in the test specimens was thus determined together with the concentration of the active component solution. The test specimens were then placed on wort agar plates and thinly coated with agar in which fungal spores had been incorporated (10^5 CFU/ml Aspergillus niger, DSM 1988). The plates were incubated for 3 days at 25° C. Sporulation was visually evaluated from the test specimens and the sporulation rate in [%] was determined.

[3] = tested on: Aspergillus niger (DSM 1988); assay: Sporulation of Aspergillus niger on a filter surface after 2 applications; details: for Sporulation [%]: filter paper treated twice with 50 μl, 3 days at 25° C.
Protocol: Effect of Eugenol on the Sporulation of Aspergillus niger on a Filter Surface After 2 Applications
Filter papers (2×2 cm) were disinfected and treated twice with a 1 hour interval with 50 μl of active-component solutions differing in concentration. The test specimens were then dried. The test specimens were then placed on wort agar plates and the surface of the wort agar plates was contaminated with 100 μl of a germ suspension (10^3 CFU/ml) of Aspergillus niger (DSM 1988). The plates were incubated for 3 days at 25° C. Sporulation was visually evaluated and the sporulation rate in [%] was determined. […] Sporulation was inhibited by increasing concentrations of eugenol and was 90% suppressed at 90 μm.

C=CCc1ccc(O)c(OC)c1 [eugenol, 4-allyl-2-methoxyphenol]
Sporulation [%] ([1]; concentration of eugenol 4 μm in wort agar, 3 days at 25° C., visually evaluated): 100%
Sporulation [%] ([1]; concentration of eugenol 40 μm in wort agar, 3 days at 25° C.): 100%
Sporulation [%] ([1]; concentration of eugenol 65 μm in wort agar, 3 days at 25° C.): 100%
Sporulation [%] ([1]; concentration of eugenol 90 μm in wort agar, 3 days at 25° C.): 80%
Sporulation [%] ([1]; concentration of eugenol 110 μm in wort agar, 3 days at 25° C.): 70%
Sporulation [%] ([1]; concentration of eugenol 220 μm in wort agar, 3 days at 25° C.): 0%
Sporulation [%] ([1]; concentration of eugenol 330 μm in wort agar, 3 days at 25° C.): 0%
Sporulation [%] ([1]; concentration of eugenol 650 μm in wort agar, 3 days at 25° C.): 0%
Concentration at which sporulation was completely suppressed ([1]; wort agar plates, 3 days at 25° C.): 220 µM
Sporulation [%] ([2]; concentration of eugenol 1.7 μm/g jointing compound, 3 days at 25° C.): 0%
Sporulation [%] ([2]; concentration of eugenol <1 μm/g jointing compound, 3 days at 25° C.): 100%
Sporulation [%] ([2]; concentration of eugenol ca. 3 μm/g jointing compound, 3 days at 25° C.): 0%
Concentration at which sporulation was completely suppressed ([2]; silicone jointing compound (acetate system), 3 days at 25° C.): 1.7 μm/g jointing compound
Sporulation suppressed ([3]; at 90 μm, filter surface after 2 applications): 90%
Sporulation [%] ([3]; concentration 0.6 μm): 100%
Sporulation [%] ([3]; concentration 6 μm): 100%
Sporulation [%] ([3]; concentration 30 μm): 100%
Sporulation [%] ([3]; concentration 45 μm): 100%
Sporulation [%] ([3]; concentration 60 μm): 100%
Sporulation [%] ([3]; concentration 90 μm): 10%
Sporulation [%] ([3]; concentration 120 μm): 10%

CC(C)=CCCC(C)=CCCC(C)=CCO [farnesol, reference compound]
Sporulation [%] ([1]; comparison test, concentration of farnesol 125 μm): 50%
Sporulation [%] ([2]; concentration of farnesol 0.4 μm/g jointing compound, 3 days at 25° C.): 100%
Sporulation [%] ([2]; concentration of farnesol 1.1 μm/g jointing compound, 3 days at 25° C.): 100%
Sporulation [%] ([2]; concentration of farnesol 17 μm/g jointing compound, 3 days at 25° C.): 30%
Inhibition of sporulation compared with eugenol ([2]; parallel test series, identical concentrations): inhibited, but to a far lesser extent compared with identical concentrations of eugenol
Sporulation [%] ([3]; concentration 0.5 μm): 100%
Sporulation [%] ([3]; concentration 5 μm): 100%
Sporulation [%] ([3]; concentration 25 μm): 100%
Sporulation [%] ([3]; concentration 35 μm): 60%
Sporulation [%] ([3]; concentration 50 μm): 80%
Sporulation [%] ([3]; concentration 70 μm): 50%
Sporulation [%] ([3]; concentration 90 μm): 40%
Inhibition of sporulation compared with eugenol ([3]; second, parallel test series, identical concentrations): inhibited, but to a lesser extent compared with identical concentrations of eugenol
